Measurements: publication PMC4077696 (PLoS Biology, 2014)
Entries after “also recorded” stand apart in the source; their conditions may differ. Structures can show the parent of a compound that is named as a salt.

Columns and labels:
HEpG2 cells = assay: Toxicity against human HEpG2 cells; type: cell-based; details: toxicity against human cell line
signal peptidase = assay: Signal peptide cleavage of SERA5s-GFP in parasites by immunoblot; type: cell-based, Plasmodium falciparum; details: for Signal peptide cleavage of SERA5s-GFP, in words: 20 µM for 5 h
Description: This protein contains a signal peptide but lacks a PEXEL and is efficiently secreted to the parasitophorous vacuole (Figure S3B).
Trophozoites (30–34 h) expressing PfEMP3-GFP, KAHRP-GFP, or SERA5s-GFP were magnet-purified (Miltenyi Biotech), incubated with inhibitors in 400 µl total volume at 37°C for 1–5 h, treated with 0.09% saponin containing inhibitor, and washed pellets were solubilized in Laemmli's buffer, boiled for 3 min, and frozen at −20°C. Proteins were separated by SDS-PAGE, transferred to nitrocellulose and blocked in 10% skim milk/PBS-T, and probed with rat α-HA (Roche 3F10; 1∶1,000), mouse α-GFP (Roche; 1∶1,000), rabbit α-Aldolase (1∶1,000), rabbit α-HSP70 (1∶4,000), rabbit α-PfPMV (1∶1,000), or rabbit α-Hyp8 (1∶500) primary antibodies followed by horseradish peroxidase-conjugated secondary antibodies (Silenius) and detected by enhanced chemiluminescence (Amersham).

[1] = test system: P. falciparum protein translation; assay: Global protein synthesis by radiolabeling parasite proteins after drug treatment; type: cell-based, Plasmodium falciparum; details: for Global protein synthesis after 23 h treatment of rings: 15 µM or 50>15 µM, BFA 5 µg/ml; for Global protein synthesis after 5 h treatment of trophozoites: 15 or 50 µM, BFA 10 µg/ml, 15 min labeling
Description: To gain further insight into the effects of 916, 024, and 025 on parasites, we assessed global protein synthesis following drug treatment by radiolabeling parasite proteins. Treatment of trophozoites with inhibitor for 5 h prior to radiolabeling had no detectable effect on translation, even at 50 µM concentrations (Figure S4A), indicating the compounds are not direct inhibitors of the translation machinery. We next assessed protein synthesis following 23 h of drug treatment of ring stage parasites (aged 1–3 h old at the initiation of treatment). […] Indeed, Giemsa smears following treatment identified a small proportion of pyknotic parasites in the population (results not shown). […] It is possible that PMV inhibition by 916 treatment has a similar but weaker effect to BFA, in that it causes the accumulation of uncleaved PEXEL precursors in the ER, perturbing ER transport, and that this negatively affects translation by an ER stress response. An alternative possibility is that translation was decreased slightly as a result of parasites dying from 916-mediated impairment of erythrocyte remodeling. Either way, the profile for 916 was different to that seen for 024 and 025, even at 50 µM, indicating the latter analogs likely kill parasites via a different mechanism to 916.
Whole parasite proteins were radiolabeled by culturing magnet-purified trophozoites (wild-type 3D7 or expressing PfEMP3-GFP) in Met/Cys-free medium for 30 min at 37°C before addition of 800 µCi/ml ^35S-Met/Cys (Perkin/Elmer) to the medium for the indicated times. Pellets were snap frozen in ethanol/dry ice bath and stored at −80°C. For radiolabeling in the presence of PMV inhibitor, parasites were treated with 20 µM WEHI-916 for 5 h before labeling commenced. For pulse-chases, proteins were radiolabeled in the presence or absence of inhibitor, as above, before further culture in radiolabel-free, inhibitor-free complete medium for the indicated times at 37°C before snap freezing. Frozen samples were either solubilized in Laemmli's buffer (Figure S4) or solubilized in 1% Triton X-100/PBS with protease inhibitor cocktail (Roche) and PfEMP3-GFP species immunopurified with α-GFP agarose (MBL) at 4°C for 2 h (Figures 3 and S3), and proteins were resolved by SDS-PAGE, visualized by autoradiography (7-d exposures), and quantified using a GS-800 Calibrated Densitometer (Bio-Rad).

[2] = test system: cytoadherence of infected erythrocytes to CSA; assay: Static adhesion of infected erythrocytes to chondroitin sulfate A (CSA); type: cell-based, Plasmodium falciparum; details: static conditions
Description: Adhesion assays were performed as described previously,[33]. Briefly, CSA (Sigma) was spotted at 50 µg/ml in triplicate into petri dishes, incubated overnight at 4°C, and blocked in 1% casein/PBS for 2 h. Inhibitor-treated erythrocytes were added to CSA-coated dishes and incubated for 45 min at 37°C. Dishes were washed four times with 5 ml warm RPMI-HEPES, fixed in 2% paraformaldehyde for 2 h, stained with 10% Giemsa for 15 min, and the number of adherent erythrocytes per mm^2 quantified by light microscopy counts. Assays were performed in triplicate.

PfPMV = PfPMV (Plasmodium falciparum, UniProt Q8I6Z5); assay: PEXEL cleavage assay with immunopurified PfPMVHA and fluorogenic KAHRP PEXEL peptide; type: biochemical
Description: To investigate PvPMVHA activity, we affinity purified it, as well as the PfPMVHA control, using anti-HA agarose, as previously described,[18]. […] The proteins were incubated with a fluorogenic peptide of nine amino acids that contained the PEXEL sequence from knob-associated histidine-rich protein (KAHRP), and efficient processing was observed by both enzymes (Figure 1E). Cleavage of KAHRP by PfPMVHA was previously shown to occur after Leu (RTL↓) by mass spectrometry, and this position was also confirmed for PvPMVHA (Figure S2B–E). […] In contrast, no processing was observed when the PEXEL Arg and Leu residues were mutated to Ala (ATAAQ), consistent with the substrate specificity of PfPMV (Figure 1E). To verify that processing was due to HA-tagged PMV rather than other co-precipitated proteases, we expressed in P. falciparum a mutant of PvPMVHA or PfPMVHA [13], where one or both catalytic Asp residues were mutated to Ala (see Figure 1A,B). Following affinity purification, the mutant enzymes were incubated with KAHRP PEXEL peptides, but no processing was observed (Figure 1E; blue, white), confirming that the PEXEL-dependent cleavage activity observed for each protease was attributable only to HA-tagged PMV.
Each compound was incubated with PfPMVHA in the presence of KAHRP PEXEL peptides.
PMV-agarose was prepared by adding α-HA-agarose (Sapphire Bioscience) to parasite lysates, prepared by sonication in 1% Triton X-100/PBS, for 1 h before extensive washing in same,[13]. PEXEL cleavage assays (20 µl total volume) consisted of 0.2 µl PMV-agarose in digest buffer (25 mM Tris, 25 mM MES, pH 6.4) with 1.5 µM FRET peptide substrate (DABCYL-[…]-E-EDANS, DABCYL-[…]-E-EDANS, LifeTein; DABCYL-[…]-E-EDANS, DABCYL-[…]-E-EDANS; Mimotopes) ± inhibitor. Samples were excited at 340 nm and fluorescence emission measured at 492 nm using an Envision fluorescence plate reader (Perkin-Elmer) heated to 37°C for 150 min. Samples were shaken between measurements. For determination of the peptide cleavage position by PvPMVHA, the fluorogenic peptide (DABCYL-[…]-E-EDANS), representing the wild-type KAHRP PEXEL sequence, was incubated with and without PvPMVHA at 37°C for 48 h. Products of the incubation were detected by a molecular formula algorithm using an Agilent 6200 TOF/6500 series mass spectrometer.

PfPMV, sequence (Q8I6Z5 34-590): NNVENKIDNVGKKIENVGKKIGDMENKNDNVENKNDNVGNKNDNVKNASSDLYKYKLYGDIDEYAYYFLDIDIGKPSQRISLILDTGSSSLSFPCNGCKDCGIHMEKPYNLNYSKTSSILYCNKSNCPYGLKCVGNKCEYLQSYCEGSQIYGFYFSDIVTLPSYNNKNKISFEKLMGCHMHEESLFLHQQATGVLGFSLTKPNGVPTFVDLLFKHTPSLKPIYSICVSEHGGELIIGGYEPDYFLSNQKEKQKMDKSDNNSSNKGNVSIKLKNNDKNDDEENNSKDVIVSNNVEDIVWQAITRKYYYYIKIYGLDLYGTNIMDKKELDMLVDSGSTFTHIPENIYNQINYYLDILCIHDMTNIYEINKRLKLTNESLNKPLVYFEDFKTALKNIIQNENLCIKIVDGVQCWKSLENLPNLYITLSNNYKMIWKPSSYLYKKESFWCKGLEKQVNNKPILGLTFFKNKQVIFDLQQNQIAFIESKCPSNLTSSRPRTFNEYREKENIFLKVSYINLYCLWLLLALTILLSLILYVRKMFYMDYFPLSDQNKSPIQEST

SMILES	IC50 (HEpG2 cells) [nM]	Signal peptide cleavage of SERA5s-GFP, in words (signal peptidase)	Effect on PMV or signal peptidase activity in parasites, in words (signal peptidase; concentrations up to 50 µM)	Global protein synthesis after 23 h treatment of rings [1]	Global protein synthesis after 5 h treatment of trophozoites [1]	Effect on adhesion to CSA, in words [2]	IC50 (PfPMV; IC50 PfPMV, PfPMVHA) [nM]	Reduction of adhesion to CSA ([2]; compared to DMSO) [%]	IC50 (PfPMV; IC50 PfPMVHA, PEXEL cleavage) [nM]
CC[C@H](C)[C@H](NC(=O)[C@@H](NC(=O)[C@H](CCCNC(=N)N)NS(=O)(=O)Cc1ccccc1)C(C)C)[C@@H](O)CC(=O)NCCc1ccccc1 [compound 025, PhCH2SO2Arg-Val-AHMHpA-NH(CH2)2Ph . TFA]	> 100000	no defect	no affect	no defect in global protein synthesis	no defect in global protein synthesis	no effect	1110	–	–
CC(C)C[C@H](NC(=O)[C@@H](NC(=O)[C@H](CCCNC(=N)N)NS(=O)(=O)Cc1ccccc1)C(C)C)[C@@H](O)CC(=O)NCCc1ccccc1 [compound 916, PhCH2SO2-Arg(NH2)-Val-Sta-NH(CH2)2Ph .TFA]	> 100000	no defect; also recorded: did not impair processing of the signal peptide	–	minor reduction in translation; also recorded: slight reduction in translation	no defect in global protein synthesis	–	–	~50	20
